In ChEMBL document CHEMBL1156829 (Proc Natl Acad Sci U S A, 2008):

Experiments:
Plasmodium falciparum [1] = experiment: NOVARTIS: Inhibition of Plasmodium falciparum 3D7 (drug-susceptible) proliferation in erythrocyte-based infection assay; type: functional, organism-based; details: Plasmodium falciparum, 3D7
Plasmodium falciparum [2] = experiment: NOVARTIS: Inhibition of Plasmodium falciparum W2 (drug-resistant) proliferation in erythrocyte-based infection assay; type: functional, organism-based; details: Plasmodium falciparum, W2; read-out: EC50
[3] = NOVARTIS: Cytotoxicity against human hepatocellular carcinoma cell line (Huh7); type: toxicity, cell-based, Huh-7; details: Huh7 cells (hepatocellular carcinoma cell line)

Row | SMILES | EC50 (Plasmodium falciparum [1]) [nM] | EC50 (Plasmodium falciparum [2]) [nM] | CC50 [3] [nM]
1 | CCc1ccc(NC(=O)c2sc3nc(N)c(C#N)c(-c4ccc(OC)c(OC)c4)c3c2N)cc1 | 5810 | 3990 | > 100000
2 | COc1cc2c3c(c4cc(OC)c(OC)cc4c2cc1OC)CN1CCC[C@@H]1C3 [TYLOPHORINE] | > 509 | 963 | > 7910
3 | CCCCNC(=O)c1nn(-c2ccc(OC)cc2)c(=O)c2ccccc12 | 2250 | 680 | > 100000
4 | CCCCCC(=O)Oc1ccccc1-c1nc2cc(C)ccn2c1NC(C)(C)CC(C)(C)C | 703 | 44.8 | > 10000
5 | Nc1ccc(-c2nc3cc(Oc4ccc(Oc5ccc6[nH]c(-c7ccc(N)cc7)nc6c5)cc4)ccc3[nH]2)cc1 | 288 | 246 | 15000
6 | COc1ccc(N2CCN(C(=O)C3=C(C)C(=O)OC34CCCCC4)CC2)cc1 | 1620 | > 1130 | > 10000
7 | O=C1Nc2ccccc2Sc2ccccc21 | > 3030 | > 12500 | > 100000
8 | Clc1ccccc1C[n+]1cc(-c2ccccc2)n2c1CCC2 | 2330 | 3470 | > 100000
9 | COc1ccc(C(=O)C(CCC(CNC(C)(C)C)C(=O)c2ccc(OC)cc2)CNC(C)(C)C)cc1 (configuration not stated) | 1120 | 1190 | > 10000
10 | Cc1onc(-c2ccccc2Cl)c1C(=O)Nc1cc(Cl)ccc1Cl | 369 | 330 | > 100000
11 | CCCCCN(CCCCC)C(O)c1cc2c(c3ccccc13)CCCC2 (configuration not stated) | 58.2 | 377 | 35400
12 | CN(CCCNc1ccnc2cc(Cl)ccc12)S(=O)(=O)c1ccc(Br)cc1 | 186 | 295 | 6880
13 | C=CCc1c(C)nc2ccc(Br)cc2c1O | 1600 | 1780 | > 100000
14 | COc1ccc(-c2cn3c([n+]2-c2ccccc2)SCC3)cc1 | 582 | 709 | > 100000
15 | COc1cc(NC(C)CCCN(Cc2ccc(F)cc2)C(=O)c2ccccc2F)c2ncccc2c1 (configuration not stated) | 692 | 649 | > 8740
16 | COc1cc(OC)cc(-n2nc(C(=O)NCCCN3CC(C)CC(C)C3)c3ccccc3c2=O)c1 (configuration not stated) | > 12500 | 2440 | > 100000
17 | CCc1ccc(C(=O)N(CCc2ccccc2)C(CC)c2nc3ccccc3c(=O)n2-c2ccccc2OC)cc1 (configuration not stated) | 389 | 1.5 | > 9700

Row | SMILES | EC50 (Plasmodium falciparum [1]) [nM] | EC50 (Plasmodium falciparum [2]) [nM] | CC50 [3] [nM]
18 | CC(C)CCNc1ncc(C(=O)NCC(C)C)c(NCCc2ccccc2)n1 | 724 | 543 | > 10000
19 | COc1ccc(-n2c(CNC(=O)c3cccc4ccccc34)n[nH]c2=S)cc1 | 1100 | 1890 | > 100000
20 | CCCCC(=O)Oc1ccccc1-c1nc2cc(C)ccn2c1NC(C)(C)CC(C)(C)C | 854 | 57 | > 10000
21 | c1ccc2[nH]c(CN(Cc3nc4ccccc4[nH]3)Cc3nc4ccccc4[nH]3)nc2c1 | 191 | 5260 | 26700
22 | CCOC(=O)c1c(CNc2ccncc2)n(C)c2cc(Br)c(O)cc12 | 315 | 333 | > 10000
23 | O=C(Nc1ccc(-c2cn3cccnc3n2)cc1)c1ccccc1I | > 12500 | 2620 | > 100000
24 | Oc1ccc(-c2ccc(F)cc2)cc1CNCCCn1ccnc1 | 1060 | 1430 | > 10000
25 | CC1CC(N(C(=O)c2ccc(Cl)cc2Cl)c2ccccc2)c2ccccc2N1C(=O)c1ccc(Cl)cc1 (configuration not stated) | 2780 | 2530 | > 100000
26 | Cc1cc(Cl)ccc1NC(=O)c1ccccc1[N+](=O)[O-] | 2070 | 930 | > 100000
27 | c1ccc(-c2csc(Nc3nc4cc5c(cc4s3)OCO5)n2)nc1 | 650 | 417 | > 100000
28 | Cc1ccc(C(=O)CSc2nc(N)c(C#N)c(-c3cccs3)c2C#N)cc1 | > 5000 | > 12500 | > 100000
29 | O=C(COc1ccccc1)NC(c1ccco1)c1cc(Cl)c2cccnc2c1O (configuration not stated) | 1490 | 589 | > 100000
30 | CCCC(c1nnnn1C1CCCCC1)N1CCN(C(=O)c2ccco2)CC1 (configuration not stated) | 1330 | 616 | > 100000
31 | COC(=O)C1=C(C)NC2=C(C(=O)CC(c3ccc(OC)c(OC)c3)C2)C1c1ccc([N+](=O)[O-])cc1 (configuration not stated) | 2680 | 704 | > 100000
32 | COc1ccc(CNC2CCN(Cc3ccccc3)CC2)cc1OCc1ccccc1 | 1030 | 27.9 | > 10000
33 | Cn1nc(C(F)(F)F)c(C(=O)Nc2cccc(C(F)(F)F)c2)c1SCc1ccc(Cl)cc1 | 1010 | 1200 | 31300
34 | O=C(NCc1ccccc1)c1cnc(NCCCn2ccnc2)nc1Nc1ccccc1 | 611 | 369 | > 10000
